Test results taken from EP1007530B1, “6-O-SUBSTITUTED ERYTHROMYCIN COMPOUNDS AND METHOD FOR MAKING SAME” (ABBOTT LABORATORIES, priority 1996, dated 1997).

What was measured:
Test in all cases: In vitro assay of antibacterial activity (agar dilution MIC)
Format in all cases: cell-based
[1] = test system: Actinetobacter calcoaceticus CMX 669; conditions: BHI agar, 35-37 °C, 20 to 24 hours, unit assumed
Procedure: (§1) Representative compounds of the present invention were assayed in vitro for antibacterial activity as follows: Twelve petri dishes containing successive aqueous dilutions of the test compound mixed with 10 mL of sterilized Brain Heart Infusion (BHI) agar (Difco 0418-01-5) were prepared. Each plate was inoculated with 1:100 (or 1:10 for slow-growing strains, such as Micrococcus and Streptococcus) dilutions of up to 32 different microorganisms, using a Steers replicator block. The inoculated plates were incubated at 35-37 °C for 20 to 24 hours, In addition, a control plate, using BHI agar containing no test compound, was prepared and incubated at the beginning and end of each test.
(§2) An additional plate containing a compound having known susceptibility patterns for the organisms being tested and belonging to the same antibiotic class as the test compound was also prepared and incubated as a further control, as well as to provide test-to-test comparability.
(§3) After incubation, each plate was visually inspected. The minimum inhibitory concentration (MIC) was defined as the lowest concentration of drug yielding no growth, a slight haze, or sparsely isolated colonies on the inoculum spot as compared to the growth control. […]

[2] = test system: Staphylococcus aureus A5177; conditions: BHI agar, 35-37 °C, 20 to 24 hours, unit assumed
Procedure: as §1, §2, §3

Candida albicans CCH 442 = conditions: BHI agar, 35-37 °C, 20 to 24 hours, unit assumed
Procedure: as §1
as §2, with “comparability. Erythromycin A was used for this purpose.” for “comparability.”
as §3

[3] = test system: Pseudomonas aeruginosa DPHD-5263; conditions: BHI agar, 35-37 °C, 20 to 24 hours, in µg/mL (unit assumed)
Procedure: as §1
as §2, with “comparability. Erythromycin A was used for this purpose.” for “comparability.”
as §3

[4] = test system: Pseudomonas aeruginosa BMH10; conditions: BHI agar, 35-37 °C, 20 to 24 hours, in µg/mL (unit assumed)
Procedure: as §1
as §2, with “comparability. Erythromycin A was used for this purpose.” for “comparability.”
as §3

[5] = test system: Staphylococcus aureus CMX 642A; conditions: BHI agar, 35-37 °C, 20 to 24 hours, unit assumed
Procedure: as §1
as §2, with “comparability. Erythromycin A was used for this purpose.” for “comparability.”
as §3

Escherichia coli KNK 437 = conditions: BHI agar, 35-37 °C, 20 to 24 hours, unit assumed
Procedure: as §1
as §2, with “comparability. Erythromycin A was used for this purpose.” for “comparability.”
as §3

[6] = test system: Providencia struartii CMX 640; conditions: BHI agar, 35-37 °C, 20 to 24 hours, unit assumed
Procedure: as §1
as §2, with “comparability. Erythromycin A was used for this purpose.” for “comparability.”
as §3

[7] = test system: Enterococcus faecium ATCC 8043; conditions: BHI agar, 35-37 °C, 20 to 24 hours, unit assumed
Procedure: as §1
as §2, with “comparability. Erythromycin A was used for this purpose.” for “comparability.”
as §3

[8] = test system: Streptococcus agalactiae CMX 508; conditions: BHI agar, 35-37 °C, 20 to 24 hours, unit assumed
Procedure: as §1
as §2, with “comparability. Erythromycin A was used for this purpose.” for “comparability.”
as §3

[9] = test system: Streptococcus pyogenes EES61; conditions: BHI agar, 35-37 °C, 20 to 24 hours, unit assumed
Procedure: as §1
as §2, with “comparability. Erythromycin A was used for this purpose.” for “comparability.”
as §3

[10] = test system: Staphylococcus aureus NCTC10649M; conditions: BHI agar, 35-37 °C, 20 to 24 hours, unit assumed
Procedure: as §1
as §2, with “comparability. Erythromycin A was used for this purpose.” for “comparability.”
as §3

[11] = test system: Staphylococcus aureus ATCC 6538P; conditions: BHI agar, 35-37 °C, 20 to 24 hours, unit assumed
Procedure: as §1
as §2, with “comparability. Erythromycin A was used for this purpose.” for “comparability.”
as §3

[12] = test system: Staphylococcus aureus A-5278; conditions: BHI agar, 35-37 °C, 20 to 24 hours, unit assumed
Procedure: as §1
as §2, with “comparability. Erythromycin A was used for this purpose.” for “comparability.”
as §3

[13] = test system: Mycobacterium smegmatis ATCC 114; conditions: BHI agar, 35-37 °C, 20 to 24 hours, unit assumed
Procedure: as §1
as §2, with “comparability. Erythromycin A was used for this purpose.” for “comparability.”
as §3

[14] = test system: Staphylococcus epidermidis 3519; conditions: BHI agar, 35-37 °C, 20 to 24 hours, unit assumed
Procedure: as §1
as §2, with “comparability. Erythromycin A was used for this purpose.” for “comparability.”
as §3

[15] = test system: Enterobacter aerogenes ATCC 13048; conditions: BHI agar, 35-37 °C, 20 to 24 hours, unit assumed
Procedure: as §1
as §2, with “comparability. Erythromycin A was used for this purpose.” for “comparability.”
as §3

[16] = test system: Streptococcus pyogenes PIU 2548; conditions: BHI agar, 35-37 °C, 20 to 24 hours, unit assumed
Procedure: as §1
as §2, with “comparability. Erythromycin A was used for this purpose.” for “comparability.”
as §3

[17] = test system: Pseudomonas aeruginosa 5007; conditions: BHI agar, 35-37 °C, 20 to 24 hours, unit assumed
Procedure: as §1
as §2, with “comparability. Erythromycin A was used for this purpose.” for “comparability.”
as §3

[18] = test system: Pseudomonas aeruginosa K799/WT; conditions: BHI agar, 35-37 °C, 20 to 24 hours, unit assumed
Procedure: as §1
as §2, with “comparability. Erythromycin A was used for this purpose.” for “comparability.”
as §3

[19] = test system: Staphylococcus aureus CMX 553; conditions: BHI agar, 35-37 °C, 20 to 24 hours, unit assumed
Procedure: as §1
as §2, with “comparability. Erythromycin A was used for this purpose.” for “comparability.”
as §3

Escherichia coli DC-2 = conditions: BHI agar, 35-37 °C, 20 to 24 hours, unit assumed
Procedure: as §1
as §2, with “comparability. Erythromycin A was used for this purpose.” for “comparability.”
as §3

Escherichia coli JUHL = conditions: BHI agar, 35-37 °C, 20 to 24 hours, in µg/mL (unit assumed)
Procedure: as §1
as §2, with “comparability. Erythromycin A was used for this purpose.” for “comparability.”
as §3

Escherichia coli H560 = conditions: BHI agar, 35-37 °C, 20 to 24 hours, unit assumed
Procedure: as §1
as §2, with “comparability. Erythromycin A was used for this purpose.” for “comparability.”
as §3

Escherichia coli SS = conditions: BHI agar, 35-37 °C, 20 to 24 hours, unit assumed
Procedure: as §1
as §2, with “comparability. Erythromycin A was used for this purpose.” for “comparability.”
as §3

[20] = test system: Streptococcus pyogenes 930; conditions: BHI agar, 35-37 °C, 20 to 24 hours, unit assumed
Procedure: as §1
as §2, with “comparability. Erythromycin A was used for this purpose.” for “comparability.”
as §3

[21] = test system: Micrococcus luteus ATCC 4698; conditions: BHI agar, 35-37 °C, 20 to 24 hours, unit assumed
Procedure: as §1
as §2, with “comparability. Erythromycin A was used for this purpose.” for “comparability.”
as §3

[22] = test system: Pseudomonas aeruginosa K799/61; conditions: BHI agar, 35-37 °C, 20 to 24 hours, unit assumed
Procedure: as §1
as §2, with “comparability. Erythromycin A was used for this purpose.” for “comparability.”
as §3

[23] = test system: Staphylococcus aureus 1775; conditions: BHI agar, 35-37 °C, 20 to 24 hours, unit assumed
Procedure: as §1
as §2, with “comparability. Erythromycin A was used for this purpose.” for “comparability.”
as §3

[24] = test system: Pseudomonas aeruginosa DPHD-2862; conditions: BHI agar, 35-37 °C, 20 to 24 hours, unit assumed
Procedure: as §1
as §2, with “comparability. Erythromycin A was used for this purpose.” for “comparability.”
as §3

Pseudomonas capacia 2961 = conditions: BHI agar, 35-37 °C, 20 to 24 hours, in µg/mL (unit assumed)
Procedure: as §1
as §2, with “comparability. Erythromycin A was used for this purpose.” for “comparability.”
as §3

[25] = test system: Micrococcus luteus ATCC 9341; conditions: BHI agar, 35-37 °C, 20 to 24 hours, unit assumed
Procedure: as §1
as §2, with “comparability. Erythromycin A was used for this purpose.” for “comparability.”
as §3

[26] = test system: Klebsiella pneumoniae ATCC 8045; conditions: BHI agar, 35-37 °C, 20 to 24 hours, unit assumed
Procedure: as §1
as §2, with “comparability. Erythromycin A was used for this purpose.” for “comparability.”
as §3

[27] = test system: Streptococcus bovis A-5169; conditions: BHI agar, 35-37 °C, 20 to 24 hours, unit assumed
Procedure: as §1
as §2, with “comparability. Erythromycin A was used for this purpose.” for “comparability.”
as §3

Row | Compound | MIC [1] [µg/mL] | MIC [2] [µg/mL] | MIC (Candida albicans CCH 442) [µg/mL] | MIC [3] | MIC [4] | MIC [5] [µg/mL] | MIC (Escherichia coli KNK 437) [µg/mL] | MIC [6] [µg/mL] | MIC [7] [µg/mL] | MIC [8] [µg/mL] | MIC [9] [µg/mL] | MIC [10] [µg/mL] | MIC [11] [µg/mL] | MIC [12] [µg/mL] | MIC [13] [µg/mL] | MIC [14] [µg/mL] | MIC [15] [µg/mL] | MIC [17] [µg/mL] | MIC [18] [µg/mL] | MIC [19] [µg/mL] | other results
1 | CC[C@H]1OC(=O)[C@H](C)[C@@H](O[C@H]2C[C@@](C)(OC)[C@@H](O)[C@H](C)O2)[C@H](C)[C@@H](O[C@@H]2O[C@H](C)C[C@H](N(C)C)[C@H]2O)[C@](C)(OCC(O)CN2CCOCC2)C[C@@H](C)C(=O)[C@H](C)[C@@H](O)[C@]1(C)O (stereo partly drawn) [Example 6, Comnound of Formula (X): X is =O, R is 2-hydroxy-3-(morpholin-4-yl)propyl] | 25 | 25 | > 100 | > 100 | > 100 | 1.56 | > 100 | > 100 | 0.39 | 0.1 | 0.05 | 0.78 | 0.78 | > 100 | 0.2 | 0.78 | > 100 | > 100 | > 100 | 0.78 | MIC [16]: 6.2 µg/mL; MIC (Escherichia coli DC-2): > 100 µg/mL; MIC (Escherichia coli JUHL): > 100; MIC (Escherichia coli H560): 100 µg/mL; MIC (Escherichia coli SS): 0.78 µg/mL; MIC [20]: > 100 µg/mL; MIC [21]: 1.56 µg/mL; MIC [22]: 12.5 µg/mL; MIC [23]: > 100 µg/mL; MIC [24]: > 100 µg/mL; MIC (Pseudomonas capacia 2961): > 100; MIC [25]: 0.1 µg/mL; MIC [26]: > 100 µg/mL
2 | CC[C@H]1OC(=O)[C@H](C)[C@@H](O[C@H]2C[C@@](C)(OC)[C@@H](O)[C@H](C)O2)[C@H](C)[C@@H](O[C@@H]2O[C@H](C)C[C@H](N(C)C)[C@H]2O)[C@](C)(OCC(O)CNCc2ccccc2)C[C@@H](C)C(=O)[C@H](C)[C@@H](O)[C@]1(C)O (stereo partly drawn) [Example 7, Compound of Formula (X): X is =O, R is 2-hydroxy-3-(benzylamino)propyl] | 12.5 | 3.1 | > 100 | > 100 | 25 | 0.39 | 12.5 | > 100 | 0.39 | 0.01 | 0.01 | 0.39 | 0.39 | > 100 | 0.2 | 0.39 | 50 | > 100 | 100 | 0.39 | MIC [27]: 0.01 µg/mL; MIC (Escherichia coli DC-2): 6.2 µg/mL; MIC (Escherichia coli JUHL): 12.5; MIC (Escherichia coli H560): 1.56 µg/mL; MIC (Escherichia coli SS): 0.2 µg/mL; MIC [20]: > 100 µg/mL; MIC [21]: 0.78 µg/mL; MIC [22]: 0.39 µg/mL; MIC [23]: > 100 µg/mL; MIC [24]: > 100 µg/mL; MIC (Pseudomonas capacia 2961): > 100; MIC [25]: 0.02 µg/mL; MIC [26]: 25 µg/mL
3 | C#CCO[C@]1(C)C[C@@H](C)C(=O)[C@H](C)[C@@H](O)[C@](C)(O)[C@@H](CC)OC(=O)[C@H](C)[C@@H](O[C@H]2C[C@@](C)(OC)[C@@H](O)[C@H](C)O2)[C@H](C)[C@H]1O[C@@H]1O[C@H](C)C[C@H](N(C)C)[C@H]1O [Example 10, Compound of Formula (X): X is =O, R is -CH2-C≡CH] | 12.5 | 6.2 | > 100 | > 100 | 100 | 0.39 | > 100 | > 100 | 0.1 | 0.05 | 0.01 | 0.39 | 0.2 | > 100 | 0.39 | 0.2 | > 100 | > 100 | > 100 | 0.39 | MIC [27]: 0.01 µg/mL; MIC (Escherichia coli DC-2): 100 µg/mL; MIC (Escherichia coli JUHL): 50; MIC (Escherichia coli H560): 25 µg/mL; MIC (Escherichia coli SS): 0.78 µg/mL; MIC [20]: > 100 µg/mL; MIC [21]: 0.78 µg/mL; MIC [22]: 3.1 µg/mL; MIC [23]: > 100 µg/mL; MIC [24]: > 100 µg/mL; MIC (Pseudomonas capacia 2961): >100; MIC [25]: 0.05 µg/mL; MIC [26]: > 100 µg/mL
